Measured values: patent US12398121B2 (Nuvation Bio Inc., priority 2018, dated 2025)
Where two headings read alike, the source gives them in different places.

Legend:
22RV1 cells = test: Cell proliferation assay (CellTiter Glo), 22RV1; type: cell-based; conditions: Homo sapiens, 22Rv1, 72 h, read-out: 22RV1 IC50
Experimental: IC50 values were calculated and graphed using the model “log(inhibitor) vs. response—Variable slope” included in GraphPad Prism 5 (San Diego, CA). The Ki values were further calculated using the equation below where [L] was the radioligand concentration (1 nM) using in this study. Kd value was 0.332 nM. Ki=IC50/(1+[L]/Kd) c. AR transactivation: Human AR cloned into a CMV vector backbone was used for the transactivation study. HEK-293 cells were plated at 80,000 cells per well of a 24 well plate in DME+5% csFBS. Twenty four hours later, the cells were transfected using Lipofectamine (Invitrogen, Carlsbad, CA) with 0.25 μg GRE-LUC, 0.01 μg CMV-LUC (renilla luciferase) and 25 ng of the AR in OPTIMEM medium. The cells were treated 24 hrs after transfection with various ligands (10^−12 to 10^−5 M final concentrations) and luciferase assay were performed 48 hours after transfection. Firefly values were normalized to renilla luciferase values and the values were represented as relative light units (RLU). Agonist and antagonist assays for the test article were performed in the absence and in the combination with 0.1 nM R1881, respectively. Data were represented as EC50 (for agonists) and IC50 (for antagonists) obtained from four parameter logistics curve. Cell culture and proliferation assays: LNCaP, PC-3, 22RV1, MCF-7, HT-29, and HCT-116 cells were procured from American Type Culture Collection (ATCC). Cells were cultured in medium recommended by the ATCC. Cell culture medium was obtained from Fisher scientific (Waltham, MA) and serum was obtained from Hyclone (San Angelo, TX).
Cells were plated at varying density in the respective growth medium in 96 well plates. 24 hr later, cells were treated, in triplicate or quadruplicate, with test articles prepared in a range of concentrations by series dilution of DMSO stock solutions in growth medium and incubated for three to seven days. The number of viable 22RV1 and HT-29 cells was measured using CellTiter Glo assay (CTG, Promega, Madison, WI) after three days of treatment. The other types of cancer cells were re-treated at three or four days and the number of viable cells was measured using CTG assay after a total treatment time of six or seven days. Cell viability data were plotted using GraphPad Prism (GraphPad Software, Inc., San Diego, CA). In addition, a nonlinear regression model with a sigmoidal dose response and variable slope within GraphPad Prism was used to calculate the IC50 value of individual test articles. Additional cell proliferation assays: Other cancer cell lines are tested in a cell proliferation assay. For example, SK-OV-3 or OVCAR3 ovarian cancer cells are tested. Cells are cultured in medium recommended by the supplier (e.g., ATCC or JCRB Cell Bank), at 37° C. in a 5% CO2 environment. For the proliferation assay, cells are plated in the growth medium in 96 well plates. Seeding density is adjusted according to the cell type. 24 hr later, cells are treated, in triplicate or quadruplicate, with test articles prepared in a range of concentrations by series dilution of DMSO stock solutions in growth medium, and typically incubated for three to seven days, with test article-containing medium replaced after three or four days. The number of viable cells is measured using CellTiter Glo assay (CTG, Promega, Madison, WI) or similar. Cell viability data are plotted using GraphPad Prism (GraphPad Software, Inc., San Diego, CA). In addition, a nonlinear regression model with a sigmoidal dose response and variable slope within GraphPad Prism is used to calculate the IC50 value of individual test articles. Similarly, HEK-293 and HeLa calls can also be tested by methods known in the art. • f. Nuclear translocation: LNCaP cells are plated on coverslips in 24 well plates in growth medium. Twenty-four hours after plating, medium is changed to RPMI+1% csFBS and the cells are maintained in this medium for two days. Medium is replaced again and the cells are treated. […]

Human recombinant PARP2 = Human recombinant PARP2 (Homo sapiens, UniProt Q9UGN5); test: RBC HotSpot PARP2 radioisotope-based filter binding assay; type: biochemical
Experimental: The following methods are for evaluating the in vitro biology properties of the test articles. • a. RBC HotSpot Poly(ADP-ribose) Polymerases 1 (PARP1) and Poly(ADP-ribose) Polymerases 2 (PARP2) Assays: The assay principle is radioisotope-based filter binding assay where incorporation of radioisotope-labeled NAD^+ into the substrate captured on filter is detected after washout free NAD^+. Data were analyzed using Excel and GraphPad Prism software for IC50 curve fits. Each assay was conducted with PJ34 as a positive control. • i. PARP1 assay: Human recombinant PARP1 at a final concentration of 2.5 nM was combined with histone H4 (20 μM) and test articles at various concentrations in reaction buffer (50 mM Tris-HCL, pH 8.0, 50 mM NaCl, 10 mM MgCl2, 1 mM DTT, 1% DMSO, and 20 μg/mL activated DNA). The solution was inoculated for 20 min at room temperature and the reaction initiated by adding [adenylate-^32P]-Nicotinamide Adenine Dinucleotide, ^32P-NAD^+ at a final concentration of 10 μM. After incubation for 2 hour at room temperature, the reaction mixture was filtered and washed with 0.75% phosphoric acid for radioactivity detection. • ii. PARP2 assay: Human recombinant PARP2 at a final concentration of 2.5 nM was combined with histone H3 (20 μM) and test articles at various concentrations in reaction buffer (50 mM Tris-HCL, pH 8.0, 50 mM NaCl, 10 mM MgCl2, 1 mM DTT, 1% DMSO, and 20 μg/mL activated DNA). The solution was inoculated for 20 min at room temperature and the reaction was initiated by adding [adenylate-^32P]-Nicotinamide Adenine Dinucleotide, ^32P-NAD^+ at a final concentration of 10 μM. After incubation for 2 hour at room temperature, the reaction mixture was filtered and washed with 0.75% phosphoric acid for radioactivity detection. • b. AR binding assay: AR in LNCaP cytosol was used for determining the binding affinity of test articles and the reference compound—progesterone (Sigma, Cat: E2785, St. Louis, MO). IC50s were determined using 8 concentrations/compound. Cytosol was plated at 200 μg/well (100 μL) into a 96-well conical polypropylene plate (Agilent, Cat: 5042-1385, Santa Clara, CA) and mixed with 3 μL of test compound. After adding 100 μL of ^3H-methyltrienolone (PerkinElmer, Cat: NET590250UC, San Jose, CA), the plate was sealed and shaken at 300 rpm at 4° C. for 24 hours. Post incubation, 100 μL of radioligand adsorption buffer containing 10 mM Tris-HCl, pH 7.4; 1.5 mM EDTA; 1 mM DTT; 0.25% charcoal; 0.0025% dextran was added to individual well. Plate was shaken for 15 min at 4′C followed by centrifugation at 3000 rpm for 30 min at 4° C. 150 μL of supernatant was transferred into scint-tube (PerkinElmer, Cat: 6000192) and mixed with 2 mL of Ultima Gold Cocktail (PerkinElmer, Cat: 6013329). Radioactivity was counted using a TriCarb 2910 TR scintillation counter (PerkinElmer). Inhibition of the radioactivity by test articles were calculated using the equation below: % Inhibition=(1−(Assay well−Average_LC)/(Average_HC−Average_LC))×100%.

[1] = 2.5 nM enzyme, histone H3, 10 μM 32P-NAD+, read-out: PARP2 IC50

Sequence of Human recombinant PARP2 (Q9UGN5 whole entry): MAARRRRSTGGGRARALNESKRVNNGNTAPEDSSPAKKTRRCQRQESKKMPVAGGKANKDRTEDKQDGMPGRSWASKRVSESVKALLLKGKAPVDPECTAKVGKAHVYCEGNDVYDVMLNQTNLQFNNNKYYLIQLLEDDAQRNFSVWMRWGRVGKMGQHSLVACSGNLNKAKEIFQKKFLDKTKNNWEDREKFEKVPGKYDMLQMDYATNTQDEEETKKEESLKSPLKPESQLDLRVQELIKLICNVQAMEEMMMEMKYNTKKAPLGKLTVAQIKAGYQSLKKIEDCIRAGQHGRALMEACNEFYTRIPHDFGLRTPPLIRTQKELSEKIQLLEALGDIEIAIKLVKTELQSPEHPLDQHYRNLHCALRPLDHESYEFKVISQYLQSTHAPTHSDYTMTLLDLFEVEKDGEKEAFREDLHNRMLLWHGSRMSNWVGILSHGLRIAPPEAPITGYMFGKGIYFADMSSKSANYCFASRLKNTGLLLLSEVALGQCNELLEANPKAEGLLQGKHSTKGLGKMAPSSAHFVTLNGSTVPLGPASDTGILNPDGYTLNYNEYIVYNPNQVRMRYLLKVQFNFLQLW

Row | Compound | IC50 (22RV1 cells) | IC50 (Human recombinant PARP2) | IC50 (22RV1 cells; cell growth inhibition, three days of treatment) | IC50 (Human recombinant PARP2; [1])
1 | CC(O)(CS(=O)(=O)c1ccc(NCCn2cc(CN3CCN(C(=O)c4cc(Cc5n[nH]c(=O)c6ccccc56)ccc4F)CC3)nn2)cc1)C(=O)Nc1ccc(C#N)c(C(F)(F)F)c1 (stereo in doubt) [Compound 1.97, (S)-N-(4-cyano-3-(trifluoromethyl)phenyl)-3-(4-(2-(4-((4-(2-fluoro-5-((4-oxo-3,4-dihydrophthalazin-1-yl)methyl)benzoyl)piperazin-1-yl)methyl)-1H-1,2,3-triazol-1-yl)ethylamino)phenylsulfonyl)-2-hydroxy-2-methylpropanamide] | > 30000 nM | 0.4 nM | – | –
2 | C[C@]12CCC(=O)C[C@@H]1CC[C@@H]1[C@@H]2CC[C@@]2(C)[C@H]1CC[C@@]2(O)CCC(=O)N1CCN(C(=O)c2cc(Cc3n[nH]c(=O)c4ccccc34)ccc2F)CC1 (stereo in doubt) [Compound 1.117, 4-(4-fluoro-3-(4-(3-((5S,8R,9S,10S,13S,14S,17R)-17-hydroxy-10,13-dimethyl-3-oxohexadecahydro-1H-cyclopenta[a]phenanthren-17-yl)propanoyl)piperazine-1-carbonyl)benzyl)phthalazin-1(2H)-one] | – | – | 440 nM | 0.1 nM
3 | CC1(C)C(=O)N(c2ccc(C#N)c(C(F)(F)F)c2)C(=S)N1c1ccc(C(=O)NCCCCCC(=O)N2CCN(C(=O)c3cc(Cc4n[nH]c(=O)c5ccccc45)ccc3F)CC2)c(F)c1 [Compound 1.1, 4-(3-(4-cyano-3-(trifluoromethyl)phenyl)-5,5-dimethyl-4-oxo-2-thioxoimidazolidin-1-yl)-2-fluoro-N-(6-(4-(2-fluoro-5-((4-oxo-3,4-dihydrophthalazin-1-yl)methyl)benzoyl)piperazin-1-yl)-6-oxohexyl)benzamide] | – | 0.2 nM | – | –
4 | C[C@]12CCC(=O)C[C@@H]1CC[C@@H]1[C@@H]2CC[C@]2(C)[C@@H](OCCCCCC(=O)N3CCN(C(=O)c4cc(Cc5n[nH]c(=O)c6ccccc56)ccc4F)CC3)CC[C@@H]12 [Compound 1.2, 4-(3-(4-(6-(((5S,8R,9S,10S,13S,14S,17S)-10,13-dimethyl-3-oxohexadecahydro-1H-cyclopenta[a]phenanthren-17-yl)oxy)hexanoyl)piperazine-1-carbonyl)-4-fluorobenzyl)phthalazin-1(2H)-one] | 400 nM | – | – | 0.2 nM
5 | CC1(C)C(=O)N(c2ccc(C#N)c(C(F)(F)F)c2)C(=S)N1c1ccc(C(=O)NCCCCCCNCc2ccc(-c3[nH]c4cc(F)cc5c4c3CCNC5=O)cc2)c(F)c1 [Compound 1.5, 4-(3-(4-cyano-3-(trifluoromethyl)phenyl)-5,5-dimethyl-4-oxo-2-thioxoimidazolidin-1-yl)-2-fluoro-N-(6-((4-(8-fluoro-1-oxo-2,3,4,6-tetrahydro-1H-azepino[5,4,3-cd]indol-5-yl)benzyl)amino)hexyl)benzamide] | 4500 nM | 2 nM | – | –
6 | C[C@](O)(CS(=O)(=O)c1ccc(NCCCCCC(=O)N2CCN(C(=O)c3cc(Cc4n[nH]c(=O)c5ccccc45)ccc3F)CC2)cc1)C(=O)Nc1ccc(C#N)c(C(F)(F)F)c1 [Compound 1.68, (R)-N-(4-cyano-3-(trifluoromethyl)phenyl)-3-(4-(6-(4-(2-fluoro-5-((4-oxo-3,4-dihydrophthalazin-1-yl)methyl)benzoyl)piperazin-1-yl)-6-oxohexylamino)phenylsulfonyl)-2-hydroxy-2-methylpropanamide] | 4700 nM | 0.2 nM | – | –
7 | C[C@](O)(COc1ccc(NCCCCCC(=O)N2CCN(C(=O)c3cc(Cc4n[nH]c(=O)c5ccccc45)ccc3F)CC2)cc1)C(=O)Nc1ccc(C#N)c(C(F)(F)F)c1 [Compound 1.83, (S)-N-(4-cyano-3-(trifluoromethyl)phenyl)-3-(4-(6-(4-(2-fluoro-5-((4-oxo-3,4-dihydrophthalazin-1-yl)methyl)benzoyl)piperazin-1-yl)-6-oxohexylamino)phenoxy)-2-hydroxy-2-methylpropanamide] | > 30000 nM | – | – | 0.3 nM
8 | C[C@](O)(CS(=O)(=O)c1ccc(NCC(=O)N2CCN(C(=O)c3cc(Cc4n[nH]c(=O)c5ccccc45)ccc3F)CC2)cc1)C(=O)Nc1ccc(C#N)c(C(F)(F)F)c1 [Compound 1.98, (R)-N-(4-cyano-3-(trifluoromethyl)phenyl)-3-(4-(2-(4-(2-fluoro-5-((4-oxo-3,4-dihydrophthalazin-1-yl)methyl)benzoyl)piperazin-1-yl)-2-oxoethylamino)phenylsulfonyl)-2-hydroxy-2-methylpropanamide] | 3500 nM | 0.1 nM | – | –
9 | CN(CCCCCC(=O)N1CCN(C(=O)c2cc(Cc3n[nH]c(=O)c4ccccc34)ccc2F)CC1)CCOc1ccc(C(=O)c2c(-c3ccc(O)cc3)sc3cc(O)ccc23)cc1 [Compound 2.4, 4-(4-fluoro-3-(4-(6-((2-(4-(6-hydroxy-2-(4-hydroxyphenyl)benzo[b]thiophene-3-carbonyl)phenoxy)ethyl)(methyl)amino)hexanoyl)piperazine-1-carbonyl)benzyl)phthalazin-1(2H)-one] | – | – | – | 0.3 nM
10 | CCC(=C(c1ccc(O)cc1)c1ccc(OCCN2CCN(C(=O)c3cc(Cc4n[nH]c(=O)c5ccccc45)ccc3F)CC2)cc1)c1ccccc1 [Compound 2.14, 4-(4-fluoro-3-(4-(2-(4-(1-(4-hydroxyphenyl)-2-phenylbut-1-enyl)phenoxy)ethyl)piperazine-1-carbonyl)benzyl)pthalazin-1(2H)-one] | – | – | – | 12.4 nM
